Data from US20240116985A1, “STAPLED PEPTIDES AND METHODS THEREOF” (priority 2020, published 2024).
Where two headings read alike, the source gives them in different places.

Experiments:
[1] = biological target: T1, full-length beta-Catenin (Uniprot ID P35222) (Homo sapiens, UniProt P35222); experiment: Fluorescence polarization IC50 (beta-catenin / 5FAM-TCF4 10-53 competition); assay type: binding; settings: fluorescence polarization
T1 construct: 10 nM full-length beta-Catenin (Uniprot ID P35222)
T1 sequence (P35222 1-781): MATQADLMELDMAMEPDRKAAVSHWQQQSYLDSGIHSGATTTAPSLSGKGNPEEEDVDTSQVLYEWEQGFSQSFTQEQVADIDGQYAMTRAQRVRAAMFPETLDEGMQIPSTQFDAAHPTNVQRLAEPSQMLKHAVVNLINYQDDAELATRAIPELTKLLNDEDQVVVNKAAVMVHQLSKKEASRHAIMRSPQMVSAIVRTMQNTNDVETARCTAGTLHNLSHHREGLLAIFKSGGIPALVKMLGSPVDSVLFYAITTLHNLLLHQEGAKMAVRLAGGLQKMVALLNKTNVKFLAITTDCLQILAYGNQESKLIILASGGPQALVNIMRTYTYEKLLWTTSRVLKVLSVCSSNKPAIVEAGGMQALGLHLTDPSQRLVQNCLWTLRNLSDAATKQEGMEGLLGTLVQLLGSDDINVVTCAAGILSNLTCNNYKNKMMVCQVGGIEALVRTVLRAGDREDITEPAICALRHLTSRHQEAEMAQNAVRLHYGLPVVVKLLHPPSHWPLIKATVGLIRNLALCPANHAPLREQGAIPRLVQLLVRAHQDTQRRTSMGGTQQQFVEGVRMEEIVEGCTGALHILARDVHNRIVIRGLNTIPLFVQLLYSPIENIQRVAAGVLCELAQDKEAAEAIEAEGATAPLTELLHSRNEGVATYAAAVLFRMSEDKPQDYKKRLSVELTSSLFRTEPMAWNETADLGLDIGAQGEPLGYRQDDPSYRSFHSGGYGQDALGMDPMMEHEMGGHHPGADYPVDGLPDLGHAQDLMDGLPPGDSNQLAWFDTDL

[2] = biological target: T2, beta-catenin/TCF4 engagement (Homo sapiens, UniProt P35222); experiment: Nano-BRET target engagement assay (B-cat-Halo & TCF4-Luc in HEK293 cells); assay type: cell-based; settings: read-out: NanoBRET Abs IC50
T2 construct: expressed in transfected cells; host or cells: HEK293
T2 sequence (P35222 1-781): T1 sequence (P35222 1-781)

IC50 ([1]; beta-catenin, read-out: FP EC50) | IC50 ([1]; read-out: beta-Catenin FP IC50) | IC50 ([2]; absolute IC50) | IC50 [2] | SMILES
16 nM | 16 nM | 29300 nM | – | CC(=O)N1CCC[C@]12CC=CCCCC1(CCCC=CCCCOC(=O)N3CC[C@@](C(=O)N[C@@H](Cc4ccccc4Cl)C(=O)N[C@@H](Cc4csc5ccccc45)C(=O)N[C@@H](CCC(N)=O)C(N)=O)(C3)NC(=O)[C@H](CC(N)=O)NC(=O)[C@H](Cc3ccccc3)NC(=O)[C@H](C)NC(=O)[C@H](C)NC(=O)[C@H](CN(CC(=O)O)Cc3c(F)c(F)c(F)c(F)c3F)NC(=O)[C@H](CC(=O)O)NC1=O)NC(=O)[C@H](CC(C)(C)C)NC(=O)[C@H](CC(=O)O)NC2=O (stereo partly drawn) [I-1449, Ac-PL3-Asp-Npg-B5-Asp-[Pfbn]GA-Ala-Ala-Phe-Asn-PyrS2-2C1F-BztA-Gln-NH2]
– | 17 nM | 8100 nM | – | CCCC[C@@H]1NC(=O)[C@H](CC(=O)O)NC(=O)[C@]2(CC=CCCCC3(CCCC=CCCCCCC[C@@](C)(C(=O)N[C@@H](Cc4ccccc4)C(=O)N[C@@H](Cc4csc5ccccc45)C(=O)N[C@@H](CCC(N)=O)C(N)=O)NC(=O)[C@H](CCO)NC(=O)[C@H](Cc4ccccc4)NC(=O)[C@H](C)NC(=O)[C@H](C)NC(=O)[C@H](CCC(=O)O)NC(=O)[C@H](CC(=O)O)NC3=O)NC1=O)CCCN2C(C)=O (stereo partly drawn) [I-1524, Ac-PL3-Asp-nLeu-B5-Asp-Glu-Ala-Ala-Phe-Hse-S8-Phe-BztA-Gln-NH2]
– | 17 nM | – | 3800 nM | CC(=O)N1CCC[C@]12CC=CCCCC1(CCCC=CCCCOC(=O)N3CC[C@@](C(=O)N[C@@H](Cc4ccccc4Cl)C(=O)N[C@@H](Cc4csc5ccccc45)C(=O)N[C@@H](CO)C(N)=O)(C3)NC(=O)[C@H](C(C)C)NC(=O)[C@H](Cc3ccccc3)NC(=O)[C@H](C)NC(=O)[C@H](C)NC(=O)[C@H](Cc3cccc(C(=O)O)c3)NC(=O)[C@H](CC(=O)O)NC1=O)NC(=O)[C@H](CC(C)(C)C)NC(=O)[C@H](CC(=O)O)NC2=O (stereo partly drawn) [I-1850, Ac-PL3-Asp-Npg-B5-Asp-3COOHF-Ala-Ala-Phe-Val-PyrS2-2C1F-BztA-Ser-NH2]
– | 8 nM | – | 15100 nM | CC(=O)N1CCC[C@]12CC=CCCCC1(CCCC=CCCCOC(=O)N3CC[C@@](C(=O)N[C@@H](Cc4ccsc4)C(=O)N[C@@H](Cc4csc5ccccc45)C(=O)N[C@@H](CCC(N)=O)C(N)=O)(C3)NC(=O)[C@H](CC(C)C)NC(=O)[C@H](Cc3ccccc3)NC(=O)[C@H](C)NC(=O)[C@H](C)NC(=O)[C@H](CCn3cc(C(C)(C)C(=O)O)nn3)NC(=O)[C@H](CC(=O)O)NC1=O)NC(=O)[C@H](CC(C)(C)C)NC(=O)[C@H](CC(=O)O)NC2=O (stereo partly drawn) [I-2079, Ac-PL3-Asp-Npg-B5-Asp-[CMe2CO2H]TriAzDab-Ala-Ala-Phe-Leu-PyrS2-3Thi-BztA-Gln-NH2]
– | 10 nM | – | 3900 nM | CC(=O)N1CCC[C@]12CC=CCCCC1(CCCC=CCCCOC(=O)N3CC[C@@](C(=O)N[C@@H](Cc4ccccc4C(F)(F)F)C(=O)N[C@@H](Cc4csc5ccccc45)C(=O)N[C@@H](C)C(N)=O)(C3)NC(=O)[C@H](CC(C)C)NC(=O)[C@H](Cc3ccccc3)NC(=O)[C@H](C)NC(=O)[C@H](CC(N)=O)NC(=O)[C@H](Cc3cccc(C(=O)O)c3)NC(=O)[C@H](CC(=O)O)NC1=O)NC(=O)[C@H](CC(C)(C)C)NC(=O)[C@H](CC(=O)O)NC2=O (stereo partly drawn) [I-2058, Ac-PL3-Asp-Npg-B5-Asp-3COOHF-Asn-Ala-Phe-Leu-PyrS2-2F3MeF-BztA-Ala-NH2]
– | 10 nM | 12800 nM | – | CC(=O)N1CCC[C@]12CC=CCCCC1(CCCC=CCCCOC(=O)N3CC[C@@](C(=O)N[C@@H](Cc4ccsc4)C(=O)N[C@@H](Cc4csc5ccccc45)C(=O)N[C@@H](CCC(N)=O)C(N)=O)(C3)NC(=O)[C@H](CC(C)C)NC(=O)[C@H](Cc3ccccc3)NC(=O)[C@H](C)NC(=O)[C@H](C)NC(=O)[C@H](CC(=O)O)NC(=O)[C@H](CC(=O)O)NC1=O)NC(=O)[C@H](CC1CCCCC1)NC(=O)[C@H](CC(=O)O)NC2=O (stereo partly drawn) [I-1519, Ac-PL3-Asp-Cha-B5-Asp-Asp-Ala-Ala-Phe-Leu-PyrS2-3Thi-BztA-Gln-NH2]
